Data: article PMC7618403 (Science (New York, N.Y.), 2026)
Each block holds one molecule with its values, some of them ahead of it.

Legend:
[1] = target: T1, XRCC3 complex (XRCC3-RAD51C-RAD51D-XRCC2), XRCC2 site (Homo sapiens, UniProt O43543); assay: cryo-EM structure, […] A; format: binding; conditions: XRCC2 nucleotide site; ATP with Mg2+ and Ca2+; capped RAD51-ssDNA filament
T1 construct: heterotetramer co-expressed in baculovirus-infected insect cells, purified; caps a RAD51-ssDNA filament; with DNA repair protein XRCC3

[2] = target: T2, (Homo sapiens, UniProt O15315+O43502); assay: ATP hydrolysis assay; format: biochemical; conditions: coupled RAD51B and RAD51C ATPase sites
T2 construct: gene RAD51B; heterotetramer; DNA repair protein XRCC2

[3] = target: T3, XRCC3 complex (XRCC3-RAD51C-RAD51D-XRCC2), XRCC3 site (Homo sapiens, UniProt O43542); assay: cryo-EM structure, […] A; format: binding; conditions: XRCC3 active site; ATP with Mg2+ and Ca2+; capped RAD51-ssDNA filament
T3 construct: heterotetramer co-expressed in baculovirus-infected insect cells, purified; in the structure it caps a RAD51-ssDNA filament; DNA repair protein XRCC2

[4] = target: T4, XRCC3 complex (XRCC3-RAD51C-RAD51D-XRCC2), RAD51D site (Homo sapiens, UniProt O75771); assay: cryo-EM structure, […] A; format: binding; conditions: RAD51D nucleotide site; ATP with Mg2+ and Ca2+; capped RAD51-ssDNA filament
T4 construct: heterotetramer co-expressed in baculovirus-infected insect cells, purified; caps a RAD51-ssDNA filament; with DNA repair protein XRCC3; DNA repair protein XRCC2

[5] = target: T5, XRCC3 complex (XRCC3-RAD51C-RAD51D-XRCC2), XRCC3 site (Homo sapiens, UniProt O43542, E143A); assay: ATP hydrolysis assay; format: biochemical; conditions: catalytic glutamate mutant
T5 construct: heterotetramer co-expressed in baculovirus-infected insect cells, purified; DNA repair protein XRCC2

[6] = target: T6, RAD51B complex (RAD51B-RAD51C-RAD51D-XRCC2; BCDX2) (Homo sapiens, UniProt O15315+O43502, O43502:E161A); assay: ATP hydrolysis assay; format: biochemical; conditions: catalytic glutamate mutant
T6 construct: heterotetramer; DNA repair protein XRCC2

[7] = target: T3, XRCC3 complex (XRCC3-RAD51C-RAD51D-XRCC2), XRCC3 site; assay: ATP hydrolysis assay; format: biochemical; conditions: catalytic glutamate mutant
Target sequence in this assay (O43502 whole entry E161A partner, one chain of several): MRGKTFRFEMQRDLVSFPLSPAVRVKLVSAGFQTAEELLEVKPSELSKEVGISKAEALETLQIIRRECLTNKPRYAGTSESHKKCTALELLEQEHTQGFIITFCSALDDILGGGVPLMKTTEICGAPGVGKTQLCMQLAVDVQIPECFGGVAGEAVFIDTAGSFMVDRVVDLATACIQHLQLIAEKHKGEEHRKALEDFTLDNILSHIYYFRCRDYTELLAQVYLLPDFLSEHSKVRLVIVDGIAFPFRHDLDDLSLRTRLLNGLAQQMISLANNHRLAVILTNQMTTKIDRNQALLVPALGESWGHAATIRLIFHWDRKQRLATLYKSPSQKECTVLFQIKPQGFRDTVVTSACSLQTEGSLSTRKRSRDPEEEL

[8] = target: T7, RAD51 (filament on ssDNA capped by XRCC3 complex) (Homo sapiens, UniProt Q06609); assay: cryo-EM structure, […] A; format: binding; conditions: RAD51 active sites, ATP with Mg2+ and Ca2+
T7 construct: with DNA repair protein XRCC3; DNA repair protein XRCC2

RAD51 [9] = target: T8, RAD51 (human, UniProt Q06609 1-339); assay: MST
T8 chain: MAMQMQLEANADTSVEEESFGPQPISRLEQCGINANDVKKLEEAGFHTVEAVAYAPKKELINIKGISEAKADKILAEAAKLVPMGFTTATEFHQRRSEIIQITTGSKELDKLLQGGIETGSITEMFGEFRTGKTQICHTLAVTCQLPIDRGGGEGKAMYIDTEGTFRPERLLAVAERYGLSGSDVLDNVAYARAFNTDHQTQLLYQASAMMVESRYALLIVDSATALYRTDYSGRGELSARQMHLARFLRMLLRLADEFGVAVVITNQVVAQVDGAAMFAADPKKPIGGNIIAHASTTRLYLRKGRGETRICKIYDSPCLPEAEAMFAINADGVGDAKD

RAD51 [10] = target: T8, RAD51; assay: MST; 1 mM ATP and CaCl2

T5 sequence (O43542 whole entry E143A, one chain of several): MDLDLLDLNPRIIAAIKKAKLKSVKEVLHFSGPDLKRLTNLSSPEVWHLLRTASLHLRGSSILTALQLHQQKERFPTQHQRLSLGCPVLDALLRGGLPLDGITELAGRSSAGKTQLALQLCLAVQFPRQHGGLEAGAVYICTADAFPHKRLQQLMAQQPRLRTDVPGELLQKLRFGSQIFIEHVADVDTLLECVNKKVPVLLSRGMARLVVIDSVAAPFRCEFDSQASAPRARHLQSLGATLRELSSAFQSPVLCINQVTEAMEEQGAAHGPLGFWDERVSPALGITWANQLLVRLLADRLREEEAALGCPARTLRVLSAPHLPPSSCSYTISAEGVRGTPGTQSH
T6 sequence (O15315 whole entry, one chain of several): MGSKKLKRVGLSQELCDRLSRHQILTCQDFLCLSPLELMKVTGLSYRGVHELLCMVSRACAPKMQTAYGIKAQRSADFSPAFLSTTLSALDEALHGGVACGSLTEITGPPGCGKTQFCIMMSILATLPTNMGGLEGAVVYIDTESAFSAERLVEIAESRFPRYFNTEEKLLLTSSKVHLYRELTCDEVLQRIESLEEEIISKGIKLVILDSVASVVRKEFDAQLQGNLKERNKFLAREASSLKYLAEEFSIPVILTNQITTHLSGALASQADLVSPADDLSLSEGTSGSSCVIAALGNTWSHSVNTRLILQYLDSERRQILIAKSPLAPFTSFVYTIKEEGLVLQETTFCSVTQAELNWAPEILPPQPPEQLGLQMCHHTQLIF
T6 sequence (O43502 whole entry E161A, one chain of several): as the sequence (O43502 whole entry E161A partner, one chain of several) above
T2 sequence (O15315 whole entry, one chain of several): as the sequence (O15315 whole entry, one chain of several) above

cryo-EM structure, 2.7 A [1]: RAD51D and XRCC2 were both bound to ATP | cryo-EM structure, 2.7 A [4]: RAD51D and XRCC2 were both bound to ATP
Molecule: Nc1ncnc2c1ncn2[C@@H]1O[C@H](COP(=O)(O)OP(=O)(O)OP(=O)(O)O)[C@@H](O)[C@H]1O [ATP]
ATP hydrolysis assay [2]: XRCC3 complex displayed minimal ATPase activity relative to the RAD51B complex | cryo-EM structure, 2.7 A [3]: XRCC3 and RAD51 protomers were also bound to ATP | ATP hydrolysis assay [5]: residual activity was eliminated by an XRCC3 catalytic glutamate mutant (XRCC3^E143A) | ATP hydrolysis assay [6]: the same mutation abolishing the ATPase activity in the RAD51B complex | ATP hydrolysis assay [7]: mutation of the catalytic glutamate in RAD51C (RAD51C^E161A) had no effect on ATPase activity | cryo-EM structure, 2.7 A [8]: XRCC3 and RAD51 protomers were also bound to ATP

Kd (RAD51 [9]): 57 nM
B1: XRCC3-RAD51C-RAD51D-XRCC2 complex (complex)
chain 1: MDLDLLDLNPRIIAAIKKAKLKSVKEVLHFSGPDLKRLTNLSSPEVWHLLRTASLHLRGSSILTALQLHQQKERFPTQHQRLSLGCPVLDALLRGGLPLDGITELAGRSSAGKTQLALQLCLAVQFPRQHGGLEAGAVYICTEDAFPHKRLQQLMAQQPRLRTDVPGELLQKLRFGSQIFIEHVADVDTLLECVNKKVPVLLSRGMARLVVIDSVAAPFRCEFDSQASAPRARHLQSLGATLRELSSAFQSPVLCINQVTEAMEEQGAAHGPLGFWDERVSPALGITWANQLLVRLLADRLREEEAALGCPARTLRVLSAPHLPPSSCSYTISAEGVRGTPGTQSH
chain 2: MRGKTFRFEMQRDLVSFPLSPAVRVKLVSAGFQTAEELLEVKPSELSKEVGISKAEALETLQIIRRECLTNKPRYAGTSESHKKCTALELLEQEHTQGFIITFCSALDDILGGGVPLMKTTEICGAPGVGKTQLCMQLAVDVQIPECFGGVAGEAVFIDTEGSFMVDRVVDLATACIQHLQLIAEKHKGEEHRKALEDFTLDNILSHIYYFRCRDYTELLAQVYLLPDFLSEHSKVRLVIVDGIAFPFRHDLDDLSLRTRLLNGLAQQMISLANNHRLAVILTNQMTTKIDRNQALLVPALGESWGHAATIRLIFHWDRKQRLATLYKSPSQKECTVLFQIKPQGFRDTVVTSACSLQTEGSLSTRKRSRDPEEEL
chain 3: MGVLRVGLCPGLTEEMIQLLRSHRIKTVVDLVSADLEEVAQKCGLSYKALVALRRVLLAQFSAFPVNGADLYEELKTSTAILSTGIGSLDKLLDAGLYTGEVTEIVGGPGSGKTQVCLCMAANVAHGLQQNVLYVDSNGGLTASRLLQLLQAKTQDEEEQAEALRRIQVVHAFDIFQMLDVLQELRGTVAQQVTGSSGTVKVVVVDSVTAVVSPLLGGQQREGLALMMQLARELKTLARDLGMAVVVTNHITRDRDSGRLKPALGRSWSFVPSTRILLDTIEGAGASGGRRMACLAKSSRQPTGFQEMVDIGTWGTSEQSATLQGDQT
chain 4: MCSAFHRAESGTELLARLEGRSSLKEIEPNLFADEDSPVHGDILEFHGPEGTGKTEMLYHLTARCILPKSEGGLEVEVLFIDTDYHFDMLRLVTILEHRLSQSSEEIIKYCLGRFFLVYCSSSTHLLLTLYSLESMFCSHPSLCLLILDSLSAFYWIDRVNGGESVNLQESTLRKCSQCLEKLVNDYRLVLFATTQTIMQKASSSSEEPSHASRRLCDVDIDYRPYLCKAWQQLVKHRMFFSKQDDSQSSNQFSLVSRCLKSNSLKKHFFIIGESGVEFC

Kd (RAD51 [10]): 93 nM
B2: RAD51C-XRCC3 heterodimer (complex)
chain 1: B1 chain 2
chain 2: B1 chain 1
